Reference: patent US20110100079A1, “METHOD FOR IMPARTING STRESS TOLERANCE TO PLANT” (priority 2007, published 2011)

How the values were obtained:
Type in all cases: in vivo
“Momotaro” tomato [1] = experiment: Example 3 drying stress tolerance imparting test (tomato); settings: 3 weeks
Protocol: Other cultivation conditions were as with the conditions of the drying stress test. Drying stress conditions: soil pF value: 2.3, 2.5, or 2.9, cultivation temperature: 23° C., relative humidity: 50%, illuminance: 5000 Lux (fluorescent light), light/dark cycle: 16 hours/8 hours (2) Cultivation period: 3 weeks (3) Soil: Kureha gardening soil manufactured by Kureha Corporation (fertilizer components: N:P:K=0.4:1.9:0.6 g/kg soil) (4) Plant preparation: A 50-cell tray was filled with Kureha gardening soil manufactured by Kureha Corporation (fertilizer components: N:P:K=0.4:1.9:0.6 g/kg soil), and seeds of a “Momotaro” tomato were sowed, thinly covered with Kureha gardening soil, and sufficiently watered to allow the seeds to sprout. When the leaves in the 2-leaf stage fully unfolded, the soil on the tomato roots was carefully washed away with running water, and a test was performed. (5) The chemicals used and the amount of a treatment solution applied were as in Example 1. (6) Amount of treatment solution applied: 10 ml/specimen for leaf spraying, 50 ml/specimen for fertigation Method of Drying Stress Tolerance Imparting Test Five tomato specimens as prepared above were planted in a 60-cm planter placed on a plant culture rack in an air-conditioned room. […] From immediately after planting the tomatoes, a treatment solution of Table 1 was sprayed onto the leaves or applied to the underground portions once a week. […] Five specimens (per planter) were prepared for each of the test plot and the control plots, plant bodies were collected 3 weeks after the beginning of the test such that the roots were not cut, the soil was washed away with running water, the fresh plant body-weights were measured, and a plant stress level and an extent of imparting plant stress tolerance were calculated according to Formula (ii) and (iii) above using the average of the weights.

“Momotaro” tomato [2] = experiment: Example 2 temperature stress tolerance imparting test (tomato); settings: 2 weeks
Protocol: Other cultivation conditions were the same as the conditions of the temperature stress test. […] (2) Solution culture medium: […] Method of Temperature Stress Tolerance Imparting Test The temperature in a climatic chamber was controlled so as to be 10, 15, or 32° C. The environmental conditions were controlled so as to have an illuminance by a fluorescent light of 5000 Lux and a daily light-dark cycle of a 16-hour light period and a 8-hour dark period. In this test, a temperature of 23° C. at which the optimum growth was observed was regarded as a reference temperature (temperature stress-free test condition), and a stress was imposed by applying a temperature higher or lower than the reference temperature. A tomato as prepared above was planted in a 250 ml polyethylene bottle filled with the solution culture medium (½ Otsuka A formulation). A treatment solution as presented in Table 1 was sprayed onto the leaves or applied to the underground portion. […] Ten specimens were prepared for each of the test plot and the control plots, and a plant stress level and an extent of imparting plant stress tolerance were calculated according to Formula (ii) and (iii) above using as a fresh plant body weight the average of the fresh plant body weights of each specimen 2 weeks after the beginning of the test.

[3] = test system: Potato Variety: Toyoshiro; experiment: Example 5 drying stress tolerance imparting test (potato variety Toyoshiro); settings: 3 weeks
Protocol: Other cultivation conditions were the same as the conditions of the drying stress test. Drying stress conditions: soil pF value: 2.3, 2.5, or 2.9, cultivation temperature: 23° C., relative humidity: 50%, illuminance: 5000 Lux (fluorescent light), light/dark cycle: 16 hours/8 hours (2) Cultivation Period: 3 weeks (3) Soil: Kureha gardening soil manufactured by Kureha Corporation (fertilizer components: N:P:K=0.4:1.9:0.6 g/kg soil) (4) The chemicals used and the amount of a treatment solution applied were the same as in Example 3. Method of Drying Stress Tolerance Imparting Test A planter (60 cm) was filled with Kureha gardening soil manufactured by Kureha Corporation (fertilizer components: N:P:K=0.4:1.9:0.6 g/kg soil) in a glass greenhouse, tubers of a “Thyoshiro” potato were cut in half: and 5 pieces thereof were planted in the planter, thinly covered with Kureha gardening soil, and sufficiently watered to allow the tubers to sprout. When the leaves in the 3-leaf stage fully unfolded, the Solarium tuberosu was relocated on a plant culture rack in an air-conditioned room, and a test was initiated. […] From immediately after the beginning of the test, a treatment solution of Table 1 was sprayed onto the leaves or applied to the underground portions once a week. […] Five specimens (per planter) were prepared for each of the test plot and the control plots, plant bodies were collected 3 weeks after the beginning of the test such that the roots were not cut, the soil was washed away with running water, the fresh plant body weights were measured, and a plant stress level and an extent of imparting plant stress tolerance were calculated according to Formula (ii) and (iii) above using the average of the weights.

“Momotaro” tomato [4] = experiment: Standard test: standard extent of imparting plant salt stress tolerance; settings: 100 ppm sprayed onto leaves 10 ml/specimen, NaCl 3510 ppm in tap water, fresh weight after 2 weeks vs salt-stressed untreated control plot 1
Protocol: Standard Test (I) Plant Preparation A 50-cell tray is filled with potting soil (fertilizer components: N:P:K=0.4:1.9:0.6 (g)/kg potting soil); and seeds of a “Momotaro” tomato (Takii Co., Ltd.) are sowed, thinly covered with potting soil, and sufficiently irrigated to allow the seeds to sprout. When the leaves in the 2-leaf stage are fully unfolded, the soil on the tomato roots is washed away with running water, and a test is performed. For the potting soil, Kureha gardening soil manufactured by Kureha Corporation may be used. (II) Test Condition Setting The environmental conditions are controlled such that the temperature is 23° C., the relative humidity is 50%, the illuminance is 5000 Lux, and the daily light-dark cycle includes a 16-hour light period and an 8-hour dark period. Such environmental conditions can be obtained by, for example, controlling the temperature in a room or a climate chamber where the temperature and the relative humidity can be controlled, and controlling illuminance by a fluorescent light or the like. […] (III) Treatment with Plant Stress Tolerance Imparting Composition […] A known surfactant or a like material that barely affects the plant may be used in the preparation of an aqueous dispersion. Test plot: An aqueous solution or an aqueous dispersion of a test compound (sugar derivative-type surfactant) (concentration: 100 ppm) is sprayed onto the leaves in an amount of 10 ml per tomato specimen. […] NaCl is added to a solution culture medium (creating a salt stress), but no test compound (plant stress tolerance imparting composition) is given to the tomato. Control plot 2: No NaCl is added to a solution culture medium (creating no salt stress), and no test compound (plant stress tolerance imparting composition) is given to the tomato. (IV) Calculation of Standard Extent of Imparting Plant Salt Stress Tolerance (%) […] The plant stress level (standard plant salt stress level) attained in the above-described standard test is about 130%. In this regard, the standard plant salt stress level can be calculated according to Formula (ii)′ below.

[5] = pF 2.3, leaf, 100 ppm once a week
[6] = pF 2.5, leaf, 100 ppm once a week
[7] = pF 2.9, leaf, 100 ppm once a week
[8] = pF 2.3, leaf, 200 ppm once a week
[9] = pF 2.3, leaf, 1 ppm once a week
[10] = pF 2.3, leaf, 10 ppm once a week
[11] = pF 2.3, leaf, 1000 ppm once a week
[12] = pF 2.3, underground portion, 100 ppm once a week
[13] = pF 2.5, underground portion, 100 ppm once a week
[14] = pF 2.9, underground portion, 100 ppm once a week

O=C(O)[C@@H]1CCCN1 [Comparative product 2, Proline, reference compound]
Extent of imparting plant stress tolerance (“Momotaro” tomato [1]; [5]): 103% | Extent of imparting plant stress tolerance (“Momotaro” tomato [1]; [6]): 102% | Extent of imparting plant stress tolerance (“Momotaro” tomato [1]; [7]): 103% | Extent of imparting plant stress tolerance (“Momotaro” tomato [2]; 10° C., leaf, 100 ppm): 102% | Extent of imparting plant stress tolerance (“Momotaro” tomato [2]; 15° C., leaf, 100 ppm): 102% | Extent of imparting plant stress tolerance (“Momotaro” tomato [2]; 32° C., leaf, 100 ppm): 102% | Extent of imparting plant stress tolerance [3, 5]: 102% | Extent of imparting plant stress tolerance [3, 6]: 103% | Extent of imparting plant stress tolerance [3, 7]: 103% | Standard extent of imparting plant salt stress tolerance (“Momotaro” tomato [4]): 102%

C[N+](C)(C)CC(=O)[O-] [Comparative product 3, Glycine betaine, reference compound]
Extent of imparting plant stress tolerance (“Momotaro” tomato [1]; [5]): 103% | Extent of imparting plant stress tolerance (“Momotaro” tomato [2]; 32° C., leaf, 100 ppm): 102% | Extent of imparting plant stress tolerance [3, 5]: 102% | Standard extent of imparting plant salt stress tolerance (“Momotaro” tomato [4]): 103%

OC[C@H]1O[C@H](OC[C@H]2O[C@H](O[C@]3(CO)O[C@H](CO)[C@@H](O)[C@@H]3O)[C@H](O)[C@@H](O)[C@@H]2O)[C@H](O)[C@@H](O)[C@H]1O [Comparative product 4, Raffinose, reference compound]
Extent of imparting plant stress tolerance (“Momotaro” tomato [1]; [5]): 102% | Extent of imparting plant stress tolerance (“Momotaro” tomato [2]; 32° C., leaf, 100 ppm): 103% | Extent of imparting plant stress tolerance [3, 5]: 103% | Standard extent of imparting plant salt stress tolerance (“Momotaro” tomato [4]): 102%

Alkyl (C10) polyglycoside [Product of present invention 15]
Extent of imparting plant stress tolerance (“Momotaro” tomato [1]; [5]): 117% | Extent of imparting plant stress tolerance (“Momotaro” tomato [1]; [8]): 115% | Extent of imparting plant stress tolerance (“Momotaro” tomato [2]; 32° C., leaf, 100 ppm): 115% | Extent of imparting plant stress tolerance (“Momotaro” tomato [2]; 32° C., leaf, 200 ppm): 115% | Extent of imparting plant stress tolerance [3, 5]: 119% | Extent of imparting plant stress tolerance [3, 8]: 116% | Standard extent of imparting plant salt stress tolerance (“Momotaro” tomato [4]): 116%

Alkyl (C12-14) polyglycoside [Product of present invention 16]
Extent of imparting plant stress tolerance (“Momotaro” tomato [1]; [5]): 118% | Extent of imparting plant stress tolerance (“Momotaro” tomato [2]; 32° C., leaf, 100 ppm): 116% | Extent of imparting plant stress tolerance [3, 5]: 121% | Standard extent of imparting plant salt stress tolerance (“Momotaro” tomato [4]): 117%

POE (6) sorbitan monooleic acid ester [Product of present invention 10]
Extent of imparting plant stress tolerance (“Momotaro” tomato [1]; [5]): 112% | Extent of imparting plant stress tolerance (“Momotaro” tomato [2]; 32° C., leaf, 100 ppm): 114% | Extent of imparting plant stress tolerance [3, 5]: 113% | Standard extent of imparting plant salt stress tolerance (“Momotaro” tomato [4]): 112%

POE (20) sorbitan monolauric acid ester [Product of present invention 12]
Extent of imparting plant stress tolerance (“Momotaro” tomato [1]; [5]): 115% | Extent of imparting plant stress tolerance (“Momotaro” tomato [1]; [8]): 118% | Extent of imparting plant stress tolerance (“Momotaro” tomato [2]; 32° C., leaf, 100 ppm): 117% | Extent of imparting plant stress tolerance (“Momotaro” tomato [2]; 32° C., leaf, 200 ppm): 121% | Extent of imparting plant stress tolerance [3, 5]: 117% | Extent of imparting plant stress tolerance [3, 8]: 120% | Standard extent of imparting plant salt stress tolerance (“Momotaro” tomato [4]): 116%

POE (20) sorbitan monooleic acid ester [Product of present invention 1]
Extent of imparting plant stress tolerance (“Momotaro” tomato [1]; [9]): 112% | Extent of imparting plant stress tolerance (“Momotaro” tomato [1]; [10]): 113% | Extent of imparting plant stress tolerance (“Momotaro” tomato [1]; [5]): 113% | Extent of imparting plant stress tolerance (“Momotaro” tomato [1]; [11]): 117% | Extent of imparting plant stress tolerance (“Momotaro” tomato [1]; [12]): 129% | Extent of imparting plant stress tolerance (“Momotaro” tomato [1]; [6]): 117% | Extent of imparting plant stress tolerance (“Momotaro” tomato [1]; [13]): 128% | Extent of imparting plant stress tolerance (“Momotaro” tomato [1]; [7]): 124% | Extent of imparting plant stress tolerance (“Momotaro” tomato [1]; [14]): 135% | Extent of imparting plant stress tolerance (“Momotaro” tomato [2]; 10° C., leaf, 100 ppm): 125% | Extent of imparting plant stress tolerance (“Momotaro” tomato [2]; 10° C., underground portion, 100 ppm): 140% | Extent of imparting plant stress tolerance (“Momotaro” tomato [2]; 15° C., leaf, 100 ppm): 117% | Extent of imparting plant stress tolerance (“Momotaro” tomato [2]; 15° C., underground portion, 100 ppm): 130% | Extent of imparting plant stress tolerance (“Momotaro” tomato [2]; 32° C., leaf, 1 ppm): 113% | Extent of imparting plant stress tolerance (“Momotaro” tomato [2]; 32° C., leaf, 10 ppm): 113% | Extent of imparting plant stress tolerance (“Momotaro” tomato [2]; 32° C., leaf, 100 ppm): 114% | Extent of imparting plant stress tolerance (“Momotaro” tomato [2]; 32° C., leaf, 1000 ppm): 119% | Extent of imparting plant stress tolerance (“Momotaro” tomato [2]; 32° C., underground portion, 100 ppm): 127% | Extent of imparting plant stress tolerance [3, 9]: 112% | Extent of imparting plant stress tolerance [3, 10]: 113% | Extent of imparting plant stress tolerance [3, 5]: 113% | Extent of imparting plant stress tolerance [3, 11]: 119% | Extent of imparting plant stress tolerance [3, 12]: 134% | Extent of imparting plant stress tolerance [3, 6]: 115% | Extent of imparting plant stress tolerance [3, 13]: 127% | Extent of imparting plant stress tolerance [3, 7]: 124% | Extent of imparting plant stress tolerance [3, 14]: 134% | Standard extent of imparting plant salt stress tolerance (“Momotaro” tomato [4]): 113%
